≈ marks a conversion by molar mass, not a printed value. Where “and” joins values, the source holds several entries; their conditions need not be identical. Identical values can stand only once. Like-named read-outs stand apart in the source and are kept apart here.
Tests used:
Format in all cases: physicochemical
[1] = Equilibrium solubility, shake-flask method; details: for solubility at 24 h: Hex, organic solvent or mixture, thermodynamic from solid, value given as S2×10^5, read-out: solubility S2∙105
Protocol: The equilibrium solubility of HML was measured by the shake-flask method over a wide temperature range of 293.15–313.15 K. Briefly, glass vials containing the respective solvent were charged with an excess of the drug. The vials were shaken at a predetermined temperature for 24 h—a duration previously established as sufficient to reach equilibrium between the solid and liquid phases. Following shaking, samples were equilibrated for ~5 h to prevent supersaturation and then centrifuged (10,000 rpm, 10 min; Biofuge pico, Thermo Electron LED GmbH, Osterode am Harz, Germany) at constant temperature. Concentrations were determined spectrophotometrically at 373 nm using a Cary-50 instrument (Varian, Palo Alto, CA, USA; software version 3.00 (339)) based on calibration curves. Data are presented as the mean ± standard deviation (or standard error) of at least three independent replicates. The error bars represent the standard deviation (SD), which ranged from 2% to 4% of the mean.

[2] = Equilibrium distribution coefficients in organic solvent/pH 7.4 systems, shake-flask method; details: for logD / logD at 24 h: read-out: log DappOctOH/pH7.4 (logD) (converted); for DappHex/pH7.4 ·10^2: value given as D×10^2
Protocol: The equilibrium distribution coefficients of HML were determined in the OctOH/pH 7.4 and Hex/pH 7.4 systems by the shake-flask method over a wide temperature range of 293.15–313.15 K. The distribution coefficient in the IPM/pH 7.4 system was obtained at 310.15 K. Before the experiment, the aqueous and organic phases were mutually pre-saturated by vigorous shaking for 24 h, equilibrated, and then carefully separated. The stock HML solutions were prepared in OctOH for the OctOH/pH 7.4 system and in pH 7.4 for both the Hex/pH 7.4 and IPM/pH 7.4 systems. The volumes of the organic and aqueous phases were selected according to the HML solubility in each solvent. The glass vials containing the two-phase system were equilibrated at constant temperature for 24 h. After this, the vials were allowed to stand for not less than 4 h, and the phases were carefully separated. The concentration of HML in each phase was measured using a UV-VIS spectrophotometer (Cary-50 Varian, Palo Alto, CA, USA; Software Version 3.00 (339)). Each experiment was carried out in three or more replicates. The standard deviation ranged from 2% to 4% of the mean. The distribution coefficients were calculated by Equation (1):(1) DappOrg/pH7.4=C2Org/pH7.4⋅V^pH7.4/Org/C2pH7.4/Org⋅V^Org/pH7.4 where DappOrg/pH7.4 is the distribution coefficient calculated using the compound concentrations in molar units, C2Org/pH7.4 and C2pH7.4/Org are the molar concentrations of the drug in the mutually saturated organic and aqueous phases, respectively, V^pH7.4/Org and V^Org/pH7.4 are the volumes of the mutually saturated buffer and organic phases, respectively. The ΔlogD parameters that characterize the drug’s hydrogen-bonding potential and reflect the impact of specific interactions on partition processes were calculated as follows:(2) ΔlogD^Oct/Hex=logDappOct/pH7.4−logDappHex/pH7.4 (3) ΔlogD^IPM/Hex=logDappIPM/pH7.4−logDappHex/pH7.4

[3] = Transfer thermodynamics from van't Hoff plots of distribution coefficients; details: 298.15 K
Description: The calculation of the thermodynamic parameters for the solubility and distribution processes was based on component concentrations expressed in terms of mole fractions. The standard calculation procedure and the respective equations are presented in the Supplementary Materials (Section S4).

[4] = pH 7.4, comparison with literature ref 19

With COc1ccc2c3c([nH]c2c1)C(C)=NCC3 [HML, Harmaline] the “solubility at pH 2.0 relative to pH 7.4 (higher)” value ([1]; 310.15 K) was 2.2 fold, the solubility at 24 h ([1]; 293.15 K) was 59.2 ± 1.3 µM (≈ 12.7 µg/mL) and the solubility at 24 h ([1]; 295.15 K) was 65 ± 1.1 µM (≈ 13.9 µg/mL). The solubility at 24 h ([1]; 298.15 K) was 75.3 ± 1.2 µM (≈ 16.1 µg/mL), the solubility at 24 h ([1]; 303.15 K) was 93.2 ± 1.7 µM (≈ 20 µg/mL) and the solubility at 24 h ([1]; 308.15 K) was 113.9 ± 0.7 µM (≈ 24.4 µg/mL). For the same molecule, the solubility at 24 h ([1]; 310.15 K) was 130 ± 3.2 µM (≈ 27.9 µg/mL), the solubility at 24 h ([1]; 313.15 K) was 145 ± 4.1 µM (≈ 31 µg/mL) and the “solubility at pH 7.4 relative to reserpine (more soluble)” value [1, 4] was 42 fold. For the same molecule, the “solubility at pH 7.4 relative to vincamine (more soluble)” value [1, 4] was 44 fold, the logD ([2]; 1-octanol (OctOH)/buffer pH 7.4, pH 7.4, OctOH/pH 7.4, 310.15 K) was 1.29 and the logD ([2]; 1-octanol (OctOH)/buffer pH 7.4, pH 7.4, OctOH/pH 7.4, 313.15 K) was 1.34. The “decrease of distribution coefficient from OctOH/pH 7.4 to IPM/pH 7.4 system” value ([2]; 310.15 K) was 78 fold, the “DappHex/pH7.4 ·10^2” value ([2]; Hex/pH 7.4, 293.15 K) was 1.178 ± 0.024 and the “DappHex/pH7.4 ·10^2” value ([2]; Hex/pH 7.4, 303.15 K) was 1.470 ± 0.037. For the same molecule, the “DappHex/pH7.4 ·10^2” value ([2]; Hex/pH 7.4, 308.15 K) was 1.718 ± 0.035, the DappHex/pH7.4 ([2]; Hex/pH 7.4, 310.15 K, unscaled value in text) was 0.022 and the “DappHex/pH7.4 ·10^2” value ([2]; Hex/pH 7.4, 310.15 K) was 2.197 ± 0.044. For the same molecule, the “DappHex/pH7.4 ·10^2” value ([2]; Hex/pH 7.4, 313.15 K) was 2.483 ± 0.050, the DappIPM/pH7.4 ([2]; IPM/pH 7.4, 310.15 K) was 0.25 and 0.250 ± 0.010 and the logD at 24 h ([2]; OctOH (octanol)/buffer pH 7.4, pH 7.4, OctOH/pH 7.4, 293.15 K) was 0.973. For the same molecule, the logD at 24 h ([2]; OctOH (octanol)/buffer pH 7.4, pH 7.4, OctOH/pH 7.4, 298.15 K) was 1.02, the logD at 24 h ([2]; OctOH (octanol)/buffer pH 7.4, pH 7.4, OctOH/pH 7.4, 303.15 K) was 1.07 and the logD at 24 h ([2]; OctOH (octanol)/buffer pH 7.4, pH 7.4, OctOH/pH 7.4, 308.15 K) was 1.17. It also gave a DappOctOH/pH7.4 ([2]; OctOH/pH 7.4, 293.15 K) of 9.399 ± 0.101, a DappOctOH/pH7.4 ([2]; OctOH/pH 7.4, 298.15 K) of 10.376 ± 0.208 and a DappOctOH/pH7.4 ([2]; OctOH/pH 7.4, 303.15 K) of 11.653 ± 0.233. The DappOctOH/pH7.4 ([2]; OctOH/pH 7.4, 308.15 K) was 14.632 ± 0.293, the DappOctOH/pH7.4 ([2]; OctOH/pH 7.4, 310.15 K) was 19.492 and 19.49 and 19.492 ± 0.389 and the DappOctOH/pH7.4 ([2]; OctOH/pH 7.4, 313.15 K) was 22.138 ± 0.443. For the same molecule, the TΔStr0 ([3]; Hex→OctOH) was 21.4±1.9 kJꞏmol-1, the “distribution coefficient Dx (mole fraction scale)” value ([3]; Hex→OctOH) was 993.14 and the “enthalpy contribution to transfer (ΔHtr0 share)” value ([3]; Hex→OctOH) was 16.7%. The “entropy contribution to transfer (TΔStr0 share)” value ([3]; Hex→OctOH) was 83.3%, the ΔGtr0 ([3]; Hex→OctOH) was -17.1±0.3 kJꞏmol-1 and −17.1 kJꞏmol-1 and the ΔHtr0 ([3]; Hex→OctOH) was 4.3±0.3 kJꞏmol-1. The TΔStr0 ([3]; pH 7.4→Hex) was 23.4±1.0 kJꞏmol-1, the “enthalpy contribution to transfer (ΔHtr0 share)” value ([3]; pH 7.4→Hex) was 55.3% and the “entropy contribution to transfer (TΔStr0 share)” value ([3]; pH 7.4→Hex) was 44.7%. For the same molecule, the ΔHtr0 ([3]; pH 7.4→Hex) was 28.9±0.7 kJꞏmol-1, the TΔStr0 ([3]; pH 7.4→OctOH) was 44.4±1.3 kJꞏmol-1 and the “distribution coefficient Dx (mole fraction scale)” value ([3]; pH 7.4→OctOH) was 103.10. The “enthalpy contribution to transfer (ΔHtr0 share)” value ([3]; pH 7.4→OctOH) was 42.6%, the “entropy contribution to transfer (TΔStr0 share)” value ([3]; pH 7.4→OctOH) was 57.4% and the ΔGtr0 ([3]; pH 7.4→OctOH) was -11.5±0.2 kJꞏmol-1 and −11.5 kJꞏmol-1. For the same molecule, the ΔHtr0 ([3]; pH 7.4→OctOH) was 32.9±0.3 kJꞏmol-1.
